Laboratory results as given in ChEMBL document CHEMBL4002620, “Synthesis of Vorinostat and cholesterol conjugate to enhance the cancer cell uptake selectivity” (Bioorg Med Chem Lett, 2017).

How the values were obtained:
[1] = Drug metabolism in human NCI-H292 cells assessed as compound hydrolysis by measuring increase in 4-amino SAHA formation after 30 mins by HPLC-ESI-MS analysis; format: ADME, cell-based; conditions: nci-h292, 0.5 h
[2] = Solubility of the compound in aqueous solution at 20 uM; format: physicochemical; conditions: buffer
[3] = Solubility of the compound in aqueous solution at 500 uM in presence of LDL; format: physicochemical; conditions: buffer
NCI-H292 [4] = experiment: cells; format: functional, cell-based; conditions: Homo sapiens, NCI-H292, 72 h
Description: Growth inhibition of human NCI-H292 cells after 72 hrs by MTT assay

NCI-H292 [5] = experiment: cells; format: functional, cell-based; conditions: Homo sapiens, NCI-H292, 72 h; remark: listed apart in the source
Description: Growth inhibition of human NCI-H292 cells after 72 hrs in presence of LDL by MTT assay

NCI-H292 [6] = experiment: cells; format: functional, cell-based; conditions: Homo sapiens, NCI-H292, 72 h; remark: listed apart in the source
Description: Growth inhibition of human NCI-H292 cells in FBS containing medium after 72 hrs using compound after sonication in presence of LDL by MTT assay

NCI-H292 [7] = experiment: cells; format: functional, cell-based; conditions: Homo sapiens, NCI-H292, 72 h; remark: listed apart in the source
Description: Growth inhibition of human NCI-H292 cells in LDL depleted FBS containing medium after 72 hrs using compound after sonication in presence of LDL by MTT assay

| Structure (SMILES) | Drug metabolism [1] | solubility [2] | solubility [3] | IC50 (NCI-H292 [4]) | IC50 (NCI-H292 [5]) | IC50 (NCI-H292 [6]) | IC50 (NCI-H292 [7]) |
| --- | --- | --- | --- | --- | --- | --- | --- |
| CC(C)CCC[C@@H](C)[C@H]1CC[C@H]2[C@@H]3CC=C4C[C@@H](OC(=O)Nc5ccc(NC(=O)CCCCCCC(=O)NO)cc5)CC[C@]4(C)[C@H]3CC[C@]12C | Metabolite_Detected | Insoluble | Soluble | > 500 µM | > 500 µM | > 500 µM | 91.2 µM |
| Nc1ccc(NC(=O)CCCCCCC(=O)NO)cc1 |  |  |  | 2.77 µM | 14.9 µM | 14.7 µM | 7.8 µM |
